The values that follow come from ChEMBL document CHEMBL3217590, “Discovery of a new class of dithiocarbamates and rhodanine scaffolds as potent antifungal agents: synthesis, biology and molecular docking” (Medchemcomm, 2012).

The test system of data set [1] is Candida albicans. As to the kind of experiment: Antifungal activity against Candida albicans after 24 to 48 hrs by broth microdilution technique. Format: functional. (Dilution methods test growth across graded concentrations, often in twofold steps.)
A further data set deals with Candida parapsilosis. As to the kind of experiment: Antifungal activity against Candida parapsilosis ATCC22019 after 24 to 48 hrs by broth microdilution technique. Type of data set: functional. Particulars: Lodderomyces parapsilosis.
In the next data set the test system is Sporothrix schenckii. As to the kind of experiment: Antifungal activity against Sporothrix schenckii after 72 to 96 hrs by broth microdilution technique. Type of data set: functional.
The subject of data set [2] is Trichophyton mentagrophytes. As to the kind of experiment: Antifungal activity against Trichophyton mentagrophytes after 72 to 96 hrs by broth microdilution technique. Type of data set: functional.
A further data set deals with Aspergillus fumigatus. As to the kind of experiment: Antifungal activity against Aspergillus fumigatus after 72 to 96 hrs by broth microdilution technique. Type of data set: functional.
The next data set concerns Cryptococcus neoformans. As to the kind of experiment: Antifungal activity against Cryptococcus neoformans after 24 to 48 hrs by broth microdilution technique. Format: functional.
Data set [3] concerns Candida albicans. Nature of the data set: Anticandidal activity against Candida albicans ATCC10231 after 24 to 48 hrs by broth microdilution technique. Format: functional.
The test system of data set [4] is Candida albicans. Nature of the data set: Anticandidal activity against Candida albicans ATCC14053 after 24 to 48 hrs by broth microdilution technique. Format: functional.
Data set [5] deals with Candida albicans. Nature of the data set: Anticandidal activity against Candida albicans CDRI after 24 to 48 hrs by broth microdilution technique. Format: functional.
Data set [6] has as its system Candida albicans. Nature of the data set: Anticandidal activity against Candida albicans isolated from patient after 24 to 48 hrs by broth microdilution technique. Type of data set: functional.
Data set [7] relates to Candida albicans. Nature of the data set: Anticandidal activity against Candida albicans MTCC183 after 24 to 48 hrs by broth microdilution technique. Format: functional.
The test system of data set [8] is Candida albicans. As to the kind of experiment: Anticandidal activity against Candida albicans ATCC750 after 24 to 48 hrs by broth microdilution technique. Format: functional.
The subject of data set [9] is Candida albicans. As to the kind of experiment: Anticandidal activity against Candida albicans ATCC-MYA 2950 after 24 to 48 hrs by broth microdilution technique. Format: functional.
Data set [10] concerns Candida albicans. As to the kind of experiment: Anticandidal activity against amphotericin-B resistant Candida albicans after 24 to 48 hrs by broth microdilution technique. Type of data set: functional.
In data set [11] the test system is Candida albicans. As to the kind of experiment: Ratio of fluconazole MIC to compound MIC against amphotericin-B resistant Candida albicans after 24 to 48 hrs by broth microdilution technique. Format: functional.
Data set [12] has as its system L929. Nature of the data set: Cytotoxicity against mouse L929 cells assessed as morphological changes up to 3.12 ug/ml after 24 hrs by giemsa staining based phase contrast microscopy. Format: cell-based. Particulars: l929, 24 h.
Data set [13] deals with L929. Nature of the data set: Cytotoxicity against mouse L929 cells assessed as decline in cell survival at 12.5 to 50 ug/ml after 24 hrs by spectrophotometric analysis. Format: cell-based. Particulars: l929, 24 h.

≈ marks a conversion by molar mass, not a printed value.

In general, MIC refers to the lowest concentration that inhibits growth of the organism. Low values mean greater potency, high ones weaker potency. Take `CCSC(=S)NCc1ccncc1`: the minimal inhibitory concentration (MIC) came to 3.12 µg/mL (≈ 14.7 µM) against Candida albicans [1]; 3.12 µg/mL (≈ 14.7 µM) against Candida parapsilosis; 1.56 µg/mL (≈ 7.35 µM) with Sporothrix schenckii; 3.12 µg/mL (≈ 14.7 µM) in data set [2]; 50 µg/mL (≈ 235 µM) against Aspergillus fumigatus; 3.12 µg/mL (≈ 14.7 µM) with Cryptococcus neoformans. Also, the MIC came out at 6.25 µg/mL (≈ 29.4 µM) against Candida albicans [3]; 3.12 µg/mL (≈ 14.7 µM) with Candida albicans [4]; 6.25 µg/mL (≈ 29.4 µM) against Candida albicans [5]; 12.5 µg/mL (≈ 58.9 µM) in the data set on Candida albicans [6]; 1.56 µg/mL (≈ 7.35 µM) in the data set with Candida albicans [7]; 12.5 µg/mL (≈ 58.9 µM) against Candida albicans [8]. Moreover, the minimum inhibitory concentration (MIC) is 12.5 µg/mL (≈ 58.9 µM) against Candida albicans [9] and 1.56 µg/mL (≈ 7.35 µM) in the data set on Candida albicans [10]. Further, the Ratio in the data set with Candida albicans [11] is 5. Besides, the results for the Activity entry with L929 [12] and in the data set with L929 [13] were “Non-toxic” and “Toxic”, respectively.
Regarding `CCCCSC(=S)NCc1ccncc1`, the minimal inhibitory concentration (MIC) against Candida albicans [1] turned out to be 3.12 µg/mL (≈ 13 µM); against Candida parapsilosis it was 6.25 µg/mL (≈ 26 µM); against Sporothrix schenckii it was 3.12 µg/mL (≈ 13 µM); in [2], 3.12 µg/mL (≈ 13 µM); against Aspergillus fumigatus, 50 µg/mL (≈ 208 µM); in the data set with Cryptococcus neoformans, 3.12 µg/mL (≈ 13 µM). Moreover, the MIC with Candida albicans [3] was determined as 6.25 µg/mL (≈ 26 µM); in the data set on Candida albicans [4], 3.12 µg/mL (≈ 13 µM); against Candida albicans [5] it was 12.5 µg/mL (≈ 52 µM); against Candida albicans [6] it was 12.5 µg/mL (≈ 52 µM); against Candida albicans [7], 1.56 µg/mL (≈ 6.49 µM); against Candida albicans [8], 12.5 µg/mL (≈ 52 µM). Moreover, the results for the minimal inhibitory concentration (MIC) against Candida albicans [9] and in the data set on Candida albicans [10] were 12.5 µg/mL (≈ 52 µM) and 1.56 µg/mL (≈ 6.49 µM), respectively. For the same compound, in the data set with Candida albicans [11], the Ratio stood at 5. In addition, the Activity result is on record as “Non-toxic” with L929 [12] and “Toxic” with L929 [13].
As for `O=C1CSC(=S)N1Cc1ccncc1`, the MIC in the data set with Candida albicans [1] is 1.56 µg/mL (≈ 6.95 µM); with Candida parapsilosis it was 6.25 µg/mL (≈ 27.9 µM); against Sporothrix schenckii, 1.56 µg/mL (≈ 6.95 µM); in [2], 3.12 µg/mL (≈ 13.9 µM); in the data set with Aspergillus fumigatus it was 12.5 µg/mL (≈ 55.7 µM); in the data set with Cryptococcus neoformans, 6.25 µg/mL (≈ 27.9 µM). For the same compound, the minimum inhibitory concentration (MIC) worked out at 6.25 µg/mL (≈ 27.9 µM) with Candida albicans [3]; 1.56 µg/mL (≈ 6.95 µM) in the data set on Candida albicans [4]; 6.25 µg/mL (≈ 27.9 µM) with Candida albicans [5]; 6.25 µg/mL (≈ 27.9 µM) with Candida albicans [6]; 0.78 µg/mL (≈ 3.48 µM) in the data set on Candida albicans [7]; 6.25 µg/mL (≈ 27.9 µM) against Candida albicans [8]. For the same compound, the minimal inhibitory concentration (MIC) in the data set with Candida albicans [9] came to 6.25 µg/mL (≈ 27.9 µM); with Candida albicans [10], 3.12 µg/mL (≈ 13.9 µM). The Ratio in the data set with Candida albicans [11] is reported as 2. The Activity result in the data set with L929 [12] is “Non-toxic”; with L929 [13], “Toxic”.
For `O=C1/C(=C/c2ccccc2[N+](=O)[O-])SC(=S)N1Cc1ccncc1`, the minimum inhibitory concentration (MIC) against Candida albicans [1] is 3.12 µg/mL (≈ 8.73 µM); in the data set on Candida parapsilosis, 3.12 µg/mL (≈ 8.73 µM); in the data set with Sporothrix schenckii, 6.25 µg/mL (≈ 17.5 µM); in data set [2], 6.25 µg/mL (≈ 17.5 µM); in the data set on Aspergillus fumigatus, over 50 µg/mL; in the data set with Cryptococcus neoformans, 6.25 µg/mL (≈ 17.5 µM). Moreover, the minimal inhibitory concentration (MIC) was found to be 50 µg/mL (≈ 140 µM) against Candida albicans [5]; 25 µg/mL (≈ 69.9 µM) against Candida albicans [6]; 12.5 µg/mL (≈ 35 µM) against Candida albicans [7]; 50 µg/mL (≈ 140 µM) in the data set on Candida albicans [8]; 50 µg/mL (≈ 140 µM) in the data set on Candida albicans [9]; 3.12 µg/mL (≈ 8.73 µM) with Candida albicans [10]. Besides, the Ratio in the data set with Candida albicans [11] is 2.
Consider `O=C1/C(=C/c2cccnc2)SC(=S)N1Cc1ccncc1`, for which the MIC is 1.56 µg/mL (≈ 4.98 µM) in the data set on Candida albicans [1]; 6.25 µg/mL (≈ 19.9 µM) in the data set with Candida parapsilosis; 1.56 µg/mL (≈ 4.98 µM) with Sporothrix schenckii; 6.25 µg/mL (≈ 19.9 µM) in data set [2]; 25 µg/mL (≈ 79.8 µM) in the data set with Aspergillus fumigatus; 3.12 µg/mL (≈ 9.96 µM) against Cryptococcus neoformans. For the same compound, the minimum inhibitory concentration (MIC) against Candida albicans [3] was 3.12 µg/mL (≈ 9.96 µM); with Candida albicans [4] it was 0.78 µg/mL (≈ 2.49 µM); in the data set on Candida albicans [5], 1.56 µg/mL (≈ 4.98 µM); with Candida albicans [6], 3.12 µg/mL (≈ 9.96 µM); in the data set with Candida albicans [7], 0.78 µg/mL (≈ 2.49 µM); against Candida albicans [8], 3.12 µg/mL (≈ 9.96 µM). In addition, the MIC was found to be 1.56 µg/mL (≈ 4.98 µM) in the data set with Candida albicans [9] and 6.25 µg/mL (≈ 19.9 µM) against Candida albicans [10]. The Ratio in the data set with Candida albicans [11] was 1.
As for `O=C1/C(=C/c2ccco2)SC(=S)N1Cc1ccncc1`, the MIC in the data set with Candida albicans [1] is 3.12 µg/mL (≈ 10.3 µM); with Candida parapsilosis, 50 µg/mL (≈ 165 µM); in the data set on Sporothrix schenckii, 3.12 µg/mL (≈ 10.3 µM); in data set [2], 12.5 µg/mL (≈ 41.3 µM); against Aspergillus fumigatus, over 50 µg/mL; in the data set on Cryptococcus neoformans it was 25 µg/mL (≈ 82.7 µM). The MIC came to 1.56 µg/mL (≈ 5.16 µM) in the data set with Candida albicans [4]; 25 µg/mL (≈ 82.7 µM) against Candida albicans [5]; 3.12 µg/mL (≈ 10.3 µM) in the data set on Candida albicans [7]; 6.25 µg/mL (≈ 20.7 µM) in the data set with Candida albicans [9]; 6.25 µg/mL (≈ 20.7 µM) with Candida albicans [10]. In addition, the Ratio with Candida albicans [11] is 1. Also, the Activity entry is “Non-toxic” in the data set with L929 [12] and “Toxic” with L929 [13].
